Measured values: US20160083357A1, “NOVEL TETRAZOLONE DERIVATIVES” (Hoffmann-La Roche Inc., priority 2013, published 2016)
pEC50: −log10 of the molar value. Where two headings read alike, the source gives them in different places.

Assays:
[1] = biological target: T1, human CB2 receptors (Homo sapiens, UniProt P34972); experiment: cAMP assay, human CB2; type: cell-based
T1 construct: expressed in transfected cells; host or cells: CHO cells
Method: (§1) CHO cells expressing human CB1 or CB2 receptors are seeded 17-24 hours prior to the experiment 50.000 cells per well in a black 96 well plate with flat clear bottom (Corning Costar #3904) in DMEM (Invitrogen No. 31331), lx HT supplement, with 10% fetal calf serum and incubated at 5% CO2 and 37° C. in a humidified incubator. The growth medium was exchanged with Krebs Ringer Bicarbonate buffer with 1 mM IBMX and incubated at 30° C. for 30 min. Compounds were added to a final assay volume of 100 μl and incubated for 30 min at 30° C. Using the cAMP-Nano-TRF detection kit the assay (Roche Diagnostics) was stopped by the addition of 50 μl lysis reagent (Tris, NaCl, 1.5% Triton X100, 2.5% NP40, 10% NaN3) and 50 μl detection solutions (20 μM mAb Alexa700-cAMP 1:1, and 48 μM Ruthenium-2-AHA-cAMP) and shaken for 2 h at room temperature. The time-resolved energy transfer is measured by a TRF reader (Evotec Technologies GmbH), equipped with a ND:YAG laser as excitation source. The plate is measured twice with the excitation at 355 nm and at the emission with a delay of 100 ns and a gate of 100 ns, total exposure time 10 s at 730 (bandwidth 30 nm) or 645 nm (bandwidth 75 nm), respectively. The FRET signal is calculated as follows: FRET=T730-Alexa730-P(T645-B645) with P=Ru730-B730/Ru645-B645, where T730 is the test well measured at 730 nM, T645 is the test well measured at 645 nm, B730 and B645 are the buffer controls at 730 nm and 645 nm, respectively. cAMP content is determined from the function of a standard curve spanning from 10 μM to 0.13 nM cAMP.
(§2) EC50 values were determined using Activity Base analysis (ID Business Solution, Limited). The EC50 values for a wide range of cannabinoid agonists generated from this assay were in agreement with the values published in the scientific literature.

[2] = biological target: T2, human CB1 receptors (Homo sapiens, UniProt P21554); experiment: cAMP assay, human CB1; type: cell-based
T2 construct: expressed in transfected cells; host or cells: CHO cells
Method: as §1, §2

[3] = functional cAMP assay, CHO cells expressing human CB2, read-out: Ec50: CB2 - hu cAMP
[4] = functional cAMP assay, CHO cells expressing human CB1, read-out: Ec50: CB1 - hu cAMP

T2 sequence (P21554 whole entry): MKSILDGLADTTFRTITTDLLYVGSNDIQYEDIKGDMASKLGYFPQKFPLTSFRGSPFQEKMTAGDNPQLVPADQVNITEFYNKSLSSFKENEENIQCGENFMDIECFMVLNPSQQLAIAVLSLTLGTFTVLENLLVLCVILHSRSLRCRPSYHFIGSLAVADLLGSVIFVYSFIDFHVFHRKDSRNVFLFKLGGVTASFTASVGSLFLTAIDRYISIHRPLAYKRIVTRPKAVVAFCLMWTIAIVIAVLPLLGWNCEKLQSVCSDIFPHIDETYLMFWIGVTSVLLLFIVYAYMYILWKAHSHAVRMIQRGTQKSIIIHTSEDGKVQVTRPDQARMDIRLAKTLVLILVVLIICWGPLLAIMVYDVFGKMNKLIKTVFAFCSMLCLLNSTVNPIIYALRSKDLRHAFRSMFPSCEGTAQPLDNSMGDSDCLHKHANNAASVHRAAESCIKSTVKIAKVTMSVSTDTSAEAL
T1 sequence (P34972 whole entry): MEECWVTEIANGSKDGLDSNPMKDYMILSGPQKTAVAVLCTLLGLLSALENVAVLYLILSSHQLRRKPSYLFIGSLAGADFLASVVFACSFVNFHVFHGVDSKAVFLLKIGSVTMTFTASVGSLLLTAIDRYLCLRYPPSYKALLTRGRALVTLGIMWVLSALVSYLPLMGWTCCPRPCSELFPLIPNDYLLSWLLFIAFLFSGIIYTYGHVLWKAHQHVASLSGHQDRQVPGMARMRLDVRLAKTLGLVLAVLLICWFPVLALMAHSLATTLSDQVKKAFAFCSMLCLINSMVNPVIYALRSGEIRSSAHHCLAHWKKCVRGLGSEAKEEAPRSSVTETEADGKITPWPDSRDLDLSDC

pEC50 [1, 3] | pEC50 [2, 4] | Structure (SMILES) | pEC50 [1] | pEC50 [2]
7.34 | < 5.00 | CC1CN(C(=O)n2nnn(-c3cccc(F)c3)c2=O)CC(C)O1 (stereo not shown) [Example 58, 1-(2,6-Dimethyl-morpholine-4-carbonyl)-4-(3-fluoro-phenyl)-1,4-dihydro-tetrazol-5-one] |  | 
6.01 | < 5.00 | C[C@@H]1CN(C(=O)n2nnn(-c3cccc(F)c3)c2=O)C[C@H](C)O1 [Example 59, 1-((2S,6R)-2,6-Dimethyl-morpholine-4-carbonyl)-4-(3-fluoro-phenyl)-1,4-dihydro-tetrazol-5-one] |  | 
8.89 | < 5.00 | COCC1CCN(C(=O)n2nnn(-c3cccc(F)c3)c2=O)CC1 [Example 60, 1-(3-Fluoro-phenyl)-4-(4-methoxymethyl-piperidine-1-carbonyl)-1,4-dihydro-tetrazol-5-one] |  | 
8.17 | < 5.00 | N#CC1CCN(C(=O)n2nnn(-c3cccc(F)c3)c2=O)CC1 [Example 61, 1-[4-(3-Fluoro-phenyl)-5-oxo-4,5-dihydro-tetrazole-1-carbonyl]-piperidine-4-carbonitrile] |  | 
8.74 | < 5.00 | CC1(C)CCCN(C(=O)n2nnn(-c3cccc(F)c3)c2=O)C1 [Example 63, 1-(3,3-Dimethyl-piperidine-1-carbonyl)-4-(3-fluoro-phenyl)-1,4-dihydro-tetrazol-5-one] |  | 
8.60 | < 5.00 | O=C(N1CCC2(CCOC2)CC1)n1nnn(-c2cccc(F)c2)c1=O [Example 64, 1-(3-Fluoro-phenyl)-4-(2-oxa-8-aza-spiro[4.5]decane-8-carbonyl)-1,4-dihydro-tetrazol-5-one] |  | 
7.82 | < 5.00 | CC(=O)N[C@@H]1CCN(C(=O)n2nnn(-c3cccc(Cl)c3)c2=O)C1 [Example 65, N—{(R)-1-[4-(3-Chloro-phenyl)-5-oxo-4,5-dihydro-tetrazole-1-carbonyl]-pyrrolidin-3-yl}-acetamide] |  | 
7.69 | < 5.00 | CC(=O)N[C@@H]1CCN(C(=O)n2nnn(-c3cccc(OC(F)(F)F)c3)c2=O)C1 [Example 66, N—{(R)-1-[5-Oxo-4-(3-trifluoromethoxy-phenyl)-4,5-dihydro-tetrazole-1-carbonyl]-pyrrolidin-3-yl}-acetamide] |  | 
7.84 | < 5.00 | CC(=O)N[C@@H]1CCN(C(=O)n2nnn(-c3ccc(Cl)cc3)c2=O)C1 [Example 67, N—{(R)-1-[4-(4-Chloro-phenyl)-5-oxo-4,5-dihydro-tetrazole-1-carbonyl]-pyrrolidin-3-yl}-acetamide] |  | 
7.40 | < 5.00 | CC(=O)N[C@H]1CCN(C(=O)n2nnn(-c3cccc(Cl)c3)c2=O)C1 [Example 68, N—{(S)-1-[4-(3-Chloro-phenyl)-5-oxo-4,5-dihydro-tetrazole-1-carbonyl]-pyrrolidin-3-yl}-acetamide] |  | 
7.74 | < 5.00 | CC(=O)N[C@H]1CCN(C(=O)n2nnn(-c3cccc(OC(F)(F)F)c3)c2=O)C1 [Example 69, N—{(S)-1-[5-Oxo-4-(3-trifluoromethoxy-phenyl)-4,5-dihydro-tetrazole-1-carbonyl]-pyrrolidin-3-yl}-acetamide] |  | 
7.49 | < 5.00 | CC(=O)N[C@H]1CCN(C(=O)n2nnn(-c3ccc(Cl)cc3)c2=O)C1 [Example 70, N—{(S)-1-[4-(4-Chloro-phenyl)-5-oxo-4,5-dihydro-tetrazole-1-carbonyl]-pyrrolidin-3-yl}-acetamide] |  | 
7.78 | < 5.00 | CCN(C(C)=O)C1CCN(C(=O)n2nnn(-c3cccc(Cl)c3)c2=O)C1 (stereo not shown) [Example 71, N-{1-[4-(3-Chloro-phenyl)-5-oxo-4,5-dihydro-tetrazole-1-carbonyl]-pyrrolidin-3-yl}-N-ethyl-acetamide] |  | 
7.57 | < 5.00 | CCN(C(C)=O)C1CCN(C(=O)n2nnn(-c3cccc(OC(F)(F)F)c3)c2=O)C1 (stereo not shown) [Example 72, N-Ethyl-N-{1-[5-oxo-4-(3-trifluoromethoxy-phenyl)-4,5-dihydro-tetrazole-1-carbonyl]-pyrrolidin-3-yl}-acetamide] |  | 
7.97 | < 5.00 | CCN(C(C)=O)C1CCN(C(=O)n2nnn(-c3ccc(Cl)cc3)c2=O)C1 (stereo not shown) [Example 73, N-{1-[4-(4-Chloro-phenyl)-5-oxo-4,5-dihydro-tetrazole-1-carbonyl]-pyrrolidin-3-yl}-N-ethyl-acetamide] |  | 
8.01 | < 5.00 | Cc1cc(C2CCCN2C(=O)n2nnn(-c3cccc(Cl)c3)c2=O)on1 (stereo not shown) [Example 74, 1-(3-Chloro-phenyl)-4-[2-(3-methyl-isoxazol-5-yl)-pyrrolidine-1-carbonyl]-1,4-dihydro-tetrazol-5-one] |  | 
7.55 | < 5.00 | Cc1cc(C2CCCN2C(=O)n2nnn(-c3cccc(OC(F)(F)F)c3)c2=O)on1 (stereo not shown) [Example 75, 1-[2-(3-Methyl-isoxazol-5-yl)-pyrrolidine-1-carbonyl]-4-(3-trifluoromethoxy-phenyl)-1,4-dihydro-tetrazol-5-one] |  | 
8.13 | < 5.00 | Cc1cc(C2CCCN2C(=O)n2nnn(-c3ccc(Cl)cc3)c2=O)on1 (stereo not shown) [Example 76, 1-(4-Chloro-phenyl)-4-[2-(3-methyl-isoxazol-5-yl)-pyrrolidine-1-carbonyl]-1,4-dihydro-tetrazol-5-one] |  | 
9.22 | < 5.00 | CC1(C)CCN(C(=O)n2nnn(-c3cccc(Cl)c3)c2=O)CC1 [Example 77, 1-(3-Chloro-phenyl)-4-(4,4-dimethyl-piperidine-1-carbonyl)-1,4-dihydro-tetrazol-5-one] |  | 
8.82 | < 5.00 | CC1(C)CCN(C(=O)n2nnn(-c3cccc(OC(F)(F)F)c3)c2=O)CC1 [Example 78, 1-(4,4-Dimethyl-piperidine-1-carbonyl)-4-(3-trifluoromethoxy-phenyl)-1,4-dihydro-tetrazol-5-one] |  | 
9.05 | < 5.00 | CC1(C)CCN(C(=O)n2nnn(-c3ccc(Cl)cc3)c2=O)CC1 [Example 79, 1-(4-Chloro-phenyl)-4-(4,4-dimethyl-piperidine-1-carbonyl)-1,4-dihydro-tetrazol-5-one] |  | 
 |  | CCN(CCOC)C(=O)n1nnn(-c2cccc(Cl)c2)c1=O [Example 80, 4-(3-Chloro-phenyl)-5-oxo-4,5-dihydro-tetrazole-1-carboxylic acid ethyl-(2-methoxy-ethyl)-amide] | 8.62 | < 5.00
8.40 | < 5.00 | CCN(CCOC)C(=O)n1nnn(-c2cccc(OC(F)(F)F)c2)c1=O [Example 81, 5-Oxo-4-(3-trifluoromethoxy-phenyl)-4,5-dihydro-tetrazole-1-carboxylic acid ethyl-(2-methoxy-ethyl)-amide] |  | 
 |  | CCN(CCOC)C(=O)n1nnn(-c2ccc(Cl)cc2)c1=O [Example 82, 4-(4-Chloro-phenyl)-5-oxo-4,5-dihydro-tetrazole-1-carboxylic acid ethyl-(2-methoxy-ethyl)-amide] | 8.48 | < 5.00
 |  | COCCN(C(=O)n1nnn(-c2cccc(Cl)c2)c1=O)C(C)C [Example 83, 4-(3-Chloro-phenyl)-5-oxo-4,5-dihydro-tetrazole-1-carboxylic acid isopropyl-(2-methoxy-ethyl)-amide] | 8.28 | < 5.00
8.02 | < 5.00 | COCCN(C(=O)n1nnn(-c2cccc(OC(F)(F)F)c2)c1=O)C(C)C [Example 84, 5-Oxo-4-(3-trifluoromethoxy-phenyl)-4,5-dihydro-tetrazole-1-carboxylic acid isopropyl-(2-methoxy-ethyl)-amide] |  | 
 |  | COCCN(C(=O)n1nnn(-c2ccc(Cl)cc2)c1=O)C(C)C [Example 85, 4-(4-Chloro-phenyl)-5-oxo-4,5-dihydro-tetrazole-1-carboxylic acid isopropyl-(2-methoxy-ethyl)-amide] | 8.10 | < 5.00
9.00 | < 5.00 | COCCCN(C)C(=O)n1nnn(-c2cccc(Cl)c2)c1=O [Example 86, 4-(3-Chloro-phenyl)-5-oxo-4,5-dihydro-tetrazole-1-carboxylic acid (3-methoxy-propyl)-methyl-amide] |  | 

Structure (SMILES) | pEC50 [1, 3] | pEC50 [2, 4] | pEC50 [1] | pEC50 [2]
COC(=O)C1(NC(=O)OC(C)(C)C)CCN(C(=O)n2nnn(-c3cccc(F)c3)c2=O)CC1 [Example 62, 4-tert-Butoxycarbonylamino-1-[4-(3-fluoro-phenyl)-5-oxo-4,5-dihydro-tetrazole-1-carbonyl]-piperidine-4-carboxylic acid methyl ester] | 7.21 | < 5.00 |  | 
